In test [1] the target is T1, S100A4 (Homo sapiens, UniProt P26447).
T1 construct: It is a chemical label, not a fused protein
Kind of test: S100A4 biosensor (Mero-S100A4) fluorescence assay for S100A4 inhibitors. The test is classed as biochemical. Particulars: screening assay: 5 μM S100A4 biosensor (dimer), 100 μM FDA approved drug, 0.3 mM CaCl2; controls: no addition 8475, calcium 14996, calcium + EGTA 6088. The source says:
We produced and characterized a fluorescent analog of S100A4 (Mero-S100A4) that reports calcium binding, and thus serves to identify activated S100A4 (Garrett et al., 2004). To produce the S100A4 biosensor that monitors protein activation (i.e., calcium binding) Cys81 was derivatized with the ISO-IAA dye to a stoichiometry of 1:1 (FIG. 2).
Binding of the Mero-S100A4 to myosin-IIA results in only a small increase in fluorescence intensity (FIG. 3, right panel). These observations indicate that the S100A4 biosensor reports only calcium binding and not target binding. In addition, calcium binding studies indicate that mutagenesis and dye attachment have not altered the binding affinity of the labeled S100A4 for calcium (data not shown).
A total of 333 FDA approved drugs were tested for their ability to inhibit S100A4, using the biosensor described in Example 1. Screening assays used 5 μM S100A4 biosensor (dimer concentration), 100 μM FDA approved drug, buffer: 50 mM Tris-HCl, pH 7.5, 150 mM NaCl, 0.3 mM CaCl2, 0.02% NaN3, 1 mM DTT, 10% DMSO. […] 100 μl assay volume.

Test [2] has as its target T1, S100A4. The description is as above. The test is classed as biochemical. Particulars: 5 μM S100A4 biosensor, 0-400 μM small molecule inhibitor, 0.3 mM CaCl2 buffer.

Each structure is given as a SMILES string.

T1 sequence (P26447 whole entry C3A/C76A/C86A, form open, the tested form may be a part): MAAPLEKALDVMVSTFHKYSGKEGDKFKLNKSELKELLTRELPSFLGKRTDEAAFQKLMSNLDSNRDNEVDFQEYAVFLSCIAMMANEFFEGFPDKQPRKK

One may read the IC50 as the concentration at which inhibition is half-maximal. For the molecule `CC(=O)N1CCN(c2ccc(OCC3COC(Cn4ccnc4)(c4ccc(Cl)cc4Cl)O3)cc2)CC1` (stereo not drawn) [ketoconazole], at S100A4 [1], the “Arbitrary Fluorescence Units” value is recorded as 7759 Arbitrary Fluorescence Units. In addition, the IC50 against S100A4 [2] was found to be 23 µM.

For `CN(C)CCCN1c2ccccc2CCc2ccc(Cl)cc21` [clomipramine], the “Arbitrary Fluorescence Units” value on S100A4 [1] was 7898 Arbitrary Fluorescence Units. At S100A4 [2], this molecule came in with an IC50 of 133 µM. For the molecule `OCCN1CCN(CCCN2c3ccccc3Sc3ccc(Cl)cc32)CC1` [perphenazine], the “Arbitrary Fluorescence Units” value at S100A4 [1] is 7399 Arbitrary Fluorescence Units. This molecule yielded an IC50 on S100A4 [2] of 164 µM. For the molecule `CN(C)CC/C=C1/c2ccccc2Sc2ccc(Cl)cc21` [chlorprothixene], on S100A4 [1], the “Arbitrary Fluorescence Units” value was 7977 Arbitrary Fluorescence Units. At S100A4 [2], this molecule yielded an IC50 of 145 µM. For `OCCN1CCN(CCCN2c3ccccc3Sc3ccc(C(F)(F)F)cc32)CC1` [fluphenazine] the same measures were 6908 Arbitrary Fluorescence Units and 46 µM. In the case of `CN1CCC(=C2c3ccccc3C=Cc3ccccc32)CC1` [cyproheptadine], the IC50 on S100A4 [2] amounted to 256 µM.

Consider `CC(C)COCC(CN(Cc1ccccc1)c1ccccc1)N1CCCC1` (stereo not drawn) [bepridil], for which, at S100A4 [1], the “Arbitrary Fluorescence Units” value was 6954 Arbitrary Fluorescence Units. The same molecule displayed an IC50 against S100A4 [2] of 35 µM. In the same order, the values of `CN1CCN(CCCN2c3ccccc3Sc3ccc(C(F)(F)F)cc32)CC1` [trifluoperazine] are 7939 Arbitrary Fluorescence Units and 34 µM. In the same order, the values of `CN(C)C(=O)C(CCN1CCC(O)(c2ccc(Cl)cc2)CC1)(c1ccccc1)c1ccccc1` [loperamide] are 3820 Arbitrary Fluorescence Units and 18 µM. In the case of `OCCN1CCN(CC/C=C2/c3ccccc3Sc3ccc(C(F)(F)F)cc32)CC1` [flupenthixol-cis], the “Arbitrary Fluorescence Units” value on S100A4 [1] is reported as 6449 Arbitrary Fluorescence Units. The half-maximal inhibitory concentration (IC50) against S100A4 [2] worked out at 59 µM.

In the case of `CN1CCN(CCCN2c3ccccc3Sc3ccc(Cl)cc32)CC1` [prochlorperazine], the “Arbitrary Fluorescence Units” value on S100A4 [1] is 5505 Arbitrary Fluorescence Units. This molecule yielded an IC50 at S100A4 [2] of 33 µM.

(Values after US8236791B2, “Assays for S100 inhibitors” (Albert Einstein College of Medicine of Yeshiva University, priority 2005, dated 2012).)
